Assay results from patent EP3335720A1, “C-DI-GMP BINDING PEPTIDES” (Universität Basel, priority 2016, dated 2018).
pKd: −log10 of the molar value. Square brackets hold non-standard residues; d marks the D form. Peptide text beside a SMILES is read from it.

biological target: c-di-GMP; assay: Binding affinity of peptides to c-di-GMP by isothermal titration calorimetry (ITC); conditions: Table 3, peptides with amino acid substitution, 15°C, pH 8.0, read-out: Dissociation constant
Procedure: Binding affinities of peptides to c-di-GMP were measured using isothermal titration calorimetry (ITC) on a VP-ITC MicroCalorimeter (MicroCal, Northampton, MA, USA). Peptides, c-di-GMP and buffer (50 mM Tris-HCl, pH 8.0, 100 mM NaCl) were degassed for 15 min prior to filling into sample cell and syringe. All experiments were carried out at a temperature of 15°C. The data were evaluated using ITC Data Analysis in ORIGIN provided by the manufacturer.

Compound | pKd
Ac-ARRRFNSADYKGPRRRKAD-NH2 [compound 13] | 5.82
Ac-DARRFNSADYKGPRRRKAD-NH2 [compound 14] | 5.84
Ac-DRRRANSADYKGPRRRKAD-NH2 [compound 17] | 6.85

same assay, conditions: Table 4, deletion of single amino acid, 15°C, pH 8.0, read-out: Dissociation constant

Compound | pKd
Ac-DRRFNSADYKGPRRRKAD-NH2 [compound 32] | 5.98
Ac-DRRRFNADYKGPRRRKAD-NH2 [compound 35] | 6.36
Ac-DRRRFNSADYKPRRRKAD-NH2 [compound 38] | 5.71
Ac-DRRRFNSAYKGPRRRKAD-NH2 [compound 37] | 6.36
Ac-DRRRFNSDYKGPRRRKAD-NH2 [compound 36] | 6.47
Ac-DRRRFSADYKGPRRRKAD-NH2 [compound 34] | 5.90
Ac-DRRRNSADYKGPRRRKAD-NH2 [compound 33] | 5.90

same assay, conditions: compared to the core sequence / peptide of SEQ ID NO: 12

Compound | binding affinity to c-di-GMP, in words
Ac-ARRRFNSADYKGPRRRKAD-NH2 [SEQ ID NO: 13, AC-ARRRFNSADYKGPRRRKAD-NH2] | significantly reduced binding affinities
Ac-DARRFNSADYKGPRRRKAD-NH2 [SEQ ID NO: 14, AC-DARRFNSADYKGPRRRKAD-NH2] | significantly reduced binding affinities
Ac-DRARFNSADYKGPRRRKAD-NH2 [SEQ ID NO: 15, AC-DRARFNSADYKGPRRRKAD-NH2] | significantly reduced binding affinities
Ac-DRRAFNSADYKGPRRRKAD-NH2 [SEQ ID NO: 16, AC-DRRAFNSADYKGPRRRKAD-NH2] | sufficiently high to bind c-di-GMP
Ac-DRRFNSADYKGPRRRKAD-NH2 [SEQ ID NO: 32, AC-DRRFNSADYKGPRRRKAD-NH2] | Affinity decreased further
Ac-DRRRFASADYKGPRRRKAD-NH2 [SEQ ID NO: 18, AC-DRRRFASADYKGPRRRKAD-NH2] | does not significantly reduce binding affinity
Ac-DRRRFNAADYKGPRRRKAD-NH2 [SEQ ID NO: 19, AC-DRRRFNAADYKGPRRRKAD-NH2] | does not significantly reduce binding affinity
Ac-DRRRFNSAAYKGPRRRKAD-NH2 [SEQ ID NO: 21, AC-DRRRFNSAAYKGPRRRKAD-NH2] | does not significantly reduce binding affinity
Ac-DRRRFNSADAKGPRRRKAD-NH2 [SEQ ID NO: 22, AC-DRRRFNSADAKGPRRRKAD-NH2] | significantly reduced binding affinities
Ac-DRRRFNSADYAGPRRRKAD-NH2 [SEQ ID NO: 23, AC-DRRRFNSADYAGPRRRKAD-NH2] | does not significantly reduce binding affinity
Ac-DRRRFNSADYKAPRRRKAD-NH2 [SEQ ID NO: 24, AC-DRRRFNSADYKAPRRRKAD-NH2] | significantly reduced binding affinities
Ac-DRRRFNSADYKGARRRKAD-NH2 [SEQ ID NO: 25, AC-DRRRFNSADYKGARRRKAD-NH2] | sufficiently high to bind c-di-GMP
Ac-DRRRFNSADYKGPARRKAD-NH2 [SEQ ID NO: 26, AC-DRRRFNSADYKGPARRKAD-NH2] | significantly reduced binding affinities
Ac-DRRRFNSADYKGPRARKAD-NH2 [SEQ ID NO: 27, AC-DRRRFNSADYKGPRARKAD-NH2] | significantly reduced binding affinities
Ac-DRRRFNSADYKGPRRRAAD-NH2 [SEQ ID NO: 29, AC-DRRRFNSADYKGPRRRAAD-NH2] | does not significantly reduce binding affinity
Ac-DRRRFNSADYKGPRRRKAA-NH2 [SEQ ID NO: 31, AC-DRRRFNSADYKGPRRRKAA-NH2] | significantly reduced binding affinities
Ac-DRRRFNSADYKGPRRRKLD-NH2 [SEQ ID NO: 30, AC-DRRRFNSADYKGPRRRKLD-NH2] | does not significantly reduce binding affinity
Ac-DRRRFNSLDYKGPRRRKAD-NH2 [SEQ ID NO: 20, AC-DRRRFNSLDYKGPRRRKAD-NH2] | does not significantly reduce binding affinity
Ac-DRRRFSADYKGPRRRKAD-NH2 [SEQ ID NO: 34, AC-DRRRFSADYKGPRRRKAD-NH2] | Affinity decreased further
Ac-DRRRNSADYKGPRRRKAD-NH2 [SEQ ID NO: 33, AC-DRRRNSADYKGPRRRKAD-NH2] | Affinity decreased further

same assay, conditions: single amino acid deletion

Compound | decrease of c-di-GMP binding affinity compared to the peptide of SEQ ID NO: 12
Ac-DRRRFNADYKGPRRRKAD-NH2 [SEQ ID NO: 35, AC-DRRRFNADYKGPRRRKAD-NH2] | 2 to 3 fold
Ac-DRRRFNSADYKPRRRKAD-NH2 [SEQ ID NO: 38, AC-DRRRFNSADYKPRRRKAD-NH2] | about 12 fold
Ac-DRRRFNSAYKGPRRRKAD-NH2 [SEQ ID NO: 37, AC-DRRRFNSAYKGPRRRKAD-NH2] | 2 to 3 fold
Ac-DRRRFNSDYKGPRRRKAD-NH2 [SEQ ID NO: 36, AC-DRRRFNSDYKGPRRRKAD-NH2] | 2 to 3 fold

test system: not listed separately; assay: in vitro; format: in vitro ADME, P. aeruginosa PAO1; conditions: not given
Procedure: P. aeruginosa PAO1 lysate, which was used to test peptide stability, was prepared by the following procedure. 500 ml of cells grown overnight at 37°C were harvested by centrifugation at 5000 rpm, 10 min at 4°C. Pellets were resuspended in 60 ml PBS (Gibco) and centrifuged at 5000 rpm, 10 min at 4°C. Pellets were resuspended again in 20 ml PBS and centrifuged at 5000 rpm, 10 min at 4°C. Cells were disrupted using high-pressure cell disrupter (Stansted Fluid Power). Cell lysate was separated from cell debris by centrifugation at 14,000 rpm for 20 min at 4°C. Lysate was diluted 10 fold to yield a protein content of about 1 mg/ml. The lysate was used for all experiments described below.
The stability of peptides was tested against P. aeruginosa PAO1 cell lysate. About 1 to 3 µg of peptides were incubated with 5 µl P. aeruginosa PAO1 cell lysate or PBS (untreated controls) at 37°C. After 2 hours, 6 µl of 2x SDS sample buffer was added to the samples and heated to 95°C for 5 min. Samples were analyzed on 10-20% Mini-PROTEAN tris-tricine gels (BIO-RAD #4563115) according to manufacturer's recommended protocol. Band intensities were quantified using the program ImageJ (Schneider, C. A., Rasband, W. S. and Eliceiri, K. W. 2012. NIH Image to ImageJ: 25 years of image analysis. Nature methods. 9: 671-675).

Compound | Remaining peptide after 2 hours
C[C@H](NC(=O)[C@H](CO)NC(=O)[C@H](CC(N)=O)NC(=O)[C@H](Cc1ccccc1)NC(=O)[C@H](CCCNC(=N)N)NC(=O)[C@H](CCCNC(=N)N)NC(=O)[C@H](CCCNC(=N)N)NC(=O)[C@H](CC(=O)O)NC(=O)[C@H](N)CCCNC(=N)N)C(=O)N[C@@H](CC(=O)O)C(=O)N[C@@H](Cc1ccc(O)cc1)C(=O)N[C@@H](CCCCN)C(=O)NCC(=O)N1CCC[C@H]1C(=O)N[C@@H](CCCNC(=N)N)C(=O)N[C@@H](CCCNC(=N)N)C(=O)N[C@@H](CCCNC(=N)N)C(=O)N[C@@H](CCCCN)C(=O)N[C@@H](C)C(=O)N[C@@H](CC(=O)O)C(=O)N[C@H](C)C(N)=O [SEQ ID NO: 42, rDRRRFNSADYKGPRRRKADa-NH2] (H-[dR]DRRRFNSADYKGPRRRKAD[dA]-NH2) | significant improvement

same assay, conditions: cells or culture medium

Compound | remaining at 2 h
C[C@H](NC(=O)[C@H](CO)NC(=O)[C@H](CC(N)=O)NC(=O)[C@H](Cc1ccccc1)NC(=O)[C@H](CCCNC(=N)N)NC(=O)[C@H](CCCNC(=N)N)NC(=O)[C@H](CCCNC(=N)N)NC(=O)[C@H](N)CC(=O)O)C(=O)N[C@@H](CC(=O)O)C(=O)N[C@@H](Cc1ccc(O)cc1)C(=O)N[C@@H](CCCCN)C(=O)NCC(=O)N1CCC[C@H]1C(=O)N[C@@H](CCCNC(=N)N)C(=O)N[C@@H](CCCNC(=N)N)C(=O)N[C@@H](CCCNC(=N)N)C(=O)N[C@@H](CCCCN)C(=O)N[C@@H](C)C(=O)N[C@H](CC(=O)O)C(=O)O [compound 39] (H-[dD]RRRFNSADYKGPRRRKA[dD]-OH) | 19%
C[C@H](NC(=O)[C@H](CO)NC(=O)[C@H](CC(N)=O)NC(=O)[C@H](Cc1ccccc1)NC(=O)[C@H](CCCNC(=N)N)NC(=O)[C@H](CCCNC(=N)N)NC(=O)[C@H](CCCNC(=N)N)NC(=O)[C@H](CC(=O)O)NC(=O)[C@H](N)CCCNC(=N)N)C(=O)N[C@@H](CC(=O)O)C(=O)N[C@@H](Cc1ccc(O)cc1)C(=O)N[C@@H](CCCCN)C(=O)NCC(=O)N1CCC[C@H]1C(=O)N[C@@H](CCCNC(=N)N)C(=O)N[C@@H](CCCNC(=N)N)C(=O)N[C@@H](CCCNC(=N)N)C(=O)N[C@@H](CCCCN)C(=O)N[C@@H](C)C(=O)N[C@@H](CC(=O)O)C(=O)N[C@H](C)C(=O)O [compound 40] (H-[dR]DRRRFNSADYKGPRRRKAD[dA]-OH) | 15%
CC(=O)N[C@H](CCCNC(=N)N)C(=O)N[C@@H](CC(=O)O)C(=O)N[C@@H](CCCNC(=N)N)C(=O)N[C@@H](CCCNC(=N)N)C(=O)N[C@@H](CCCNC(=N)N)C(=O)N[C@@H](Cc1ccccc1)C(=O)N[C@@H](CC(N)=O)C(=O)N[C@@H](CO)C(=O)N[C@@H](C)C(=O)N[C@@H](CC(=O)O)C(=O)N[C@@H](Cc1ccc(O)cc1)C(=O)N[C@@H](CCCCN)C(=O)NCC(=O)N1CCC[C@H]1C(=O)N[C@@H](CCCNC(=N)N)C(=O)N[C@@H](CCCNC(=N)N)C(=O)N[C@@H](CCCNC(=N)N)C(=O)N[C@@H](CCCCN)C(=O)N[C@@H](C)C(=O)N[C@@H](CC(=O)O)C(=O)N[C@H](C)C(N)=O [compound 41] (Ac-[dR]DRRRFNSADYKGPRRRKAD[dA]-NH2) | 19%
C[C@H](NC(=O)[C@H](CO)NC(=O)[C@H](CC(N)=O)NC(=O)[C@H](Cc1ccccc1)NC(=O)[C@H](CCCNC(=N)N)NC(=O)[C@H](CCCNC(=N)N)NC(=O)[C@H](CCCNC(=N)N)NC(=O)[C@H](CC(=O)O)NC(=O)[C@H](N)CCCNC(=N)N)C(=O)N[C@@H](CC(=O)O)C(=O)N[C@@H](Cc1ccc(O)cc1)C(=O)N[C@@H](CCCCN)C(=O)NCC(=O)N1CCC[C@H]1C(=O)N[C@@H](CCCNC(=N)N)C(=O)N[C@@H](CCCNC(=N)N)C(=O)N[C@@H](CCCNC(=N)N)C(=O)N[C@@H](CCCCN)C(=O)N[C@@H](C)C(=O)N[C@@H](CC(=O)O)C(=O)N[C@H](C)C(N)=O [compound 42] (H-[dR]DRRRFNSADYKGPRRRKAD[dA]-NH2) | 38%
Ac-ARRRFNSADYKGPRRRKAD-NH2 [compound 13] | 56%
Ac-DARRFNSADYKGPRRRKAD-NH2 [compound 14] | 12%
